Results on two compounds are retold here after patent US12391653B2, “Salt form and crystal form of mutant IDH1 inhibitor and preparation method therefor” (KPC PHARMACEUTICALS, INC, priority 2019, dated 2025).

In general, IC50 refers to the concentration needed to halve the response being measured.

Data set [1] concerns the target IDH1 (R132C) (Homo sapiens, UniProt O75874, R132C). Description: IDH1 enzyme activity test in vitro (IDH1 R132C). It counts as biochemical. On the procedure:
(§1) IDH1 mutant catalyzes the NADPH-dependent reduction of α-KG (α-ketoglutaric acid) to 2-HG (2-hydroxyglutaric acid), and the consumed NADPH can be read out by fluorescence.
(§2) Basic reaction buffer: 50 mM KH2PO4, pH 7.5, 10 mM […], 10% glycerol, 150 mM NaCl, 0.05% BSA (bovine serum albumin), 2 mM b-ME (2-mercaptoethanol), 0.003% Brij35 (oxyethylene lauryl ether)
(§3) Substrates and cCofactors:
(§4) 1.33× enzyme (no control wells), buffer and NADP or NADPH (control wells) were added to the wells of a reaction plate. The compounds to be tested were dissolved in 100% DMSO, then added to the enzyme mixture (Echo550, nanoliter level) and incubated for 60 min after brief centrifugation. A mixture of 4× substrate and cofactor was added to start the reaction, briefly centrifuged, shaken, and incubated at room temperature for 45 min. A mixture of 3× lipoamide dehydrogenase and resazurin was prepared, added to the reaction solution to test the amount of the generated or remaining NADPH, incubated at room temperature for 10 min after simple centrifugation, and measured using a multifunctional microplate reader Envision (Ex/Em±535/590 nm).

Data set [2] in a line: Pharmacokinetic evaluation in mice. Details: species or system CD-1 mice. Conditions: mouse, in vivo. On the procedure:
The pharmacokinetic parameters of the compound represented by formula (I) were detected in mice.
1) Experimental drug: compound represented by formula (I);
2) Experimental animals: 8 male CD-1 mice aged 7-10 weeks, divided into 2 groups, 4 mice in each group;
3) Drug preparation: for the tail vein injection group, an appropriate amount of the drug was weighed out and dissolved in a mixed solvent of DMSO: 20% hydroxypropyl beta-cyclodextrin (HPbCD)±10:90 to prepare a solution of 0.5 mg/mL; for the gavage administration group, an appropriate amount of the drug was weighed out and dissolved in a mixed solvent of DMSO: polyoxyethylene castor oil EL (Cremophor EL): 5% sulfobutylcyclodextrin (Captisol)±5:10:85 to prepare into a suspension.
Animals in group 1 were given a single dose of 1 mg/kg drug at a concentration of 0.5 mg/mL via tail vein injection, and animals in group 2 were given the compound at a dose of 20 mg/kg at a concentration of 2 mg/mL by gavage. Animals were cross-collected for plasma samples at 0.0833 (the tail vein injection group only), 0.25, 0.5, 1, 2, 4, 6, 8 and 24 h after administration. The drug concentration in the plasma samples was determined by LC-MS/MS method, and the kinetic parameters of the tested drugs were obtained in Table 11: […]

The target in data set [3] is IDH1 (R132H) (Homo sapiens, UniProt O75874, R132H). Description: IDH1 enzyme activity test in vitro (IDH1 R132H). It counts as biochemical. On the procedure: as §1, §2, §3, §4
In data set [4] the target is IDH1 wt (wild type) (Homo sapiens, UniProt O75874). The experiment in a line: IDH1 enzyme activity test in vitro (IDH1 wild type). It counts as biochemical. On the procedure:
as §1, §2, §3
IDH1 wt (wild type): 65 μM isocitrate ±50 μM NADP
as §4

Data set [5] has as its target T1, U87MG IDH1-R132H (Homo sapiens, UniProt O75874, R132H).
T1 construct: expressed in transfected cells; host or cells: U87MG
The experiment in a line: IDH1 cytological activity test, 2HG content in cell culture supernatant by LC-MS. It counts as cell-based. On the procedure: In this study, after co-incubating the compound with IDH1 mutant cell lines, the 2HG content in the cell culture supernatant was detected by LC-MS to determine the inhibitory activity of the compound on IDH1 mutants. IDH1 catalyzes the reduction of isocitrate to α-ketoglutaric acid (α-KG) in vivo, while IDH1 mutants further catalyze the reduction of α-KG to 2-hydroxyglutaric acid (2HG).
U87MG-IDH1-R132H cell line is a stable transfected cell line that can stably express IDH1-R132H mutant by transfecting U87MG cells with IDH1-R132H, and HT1080 cell line contains endogenous IDH1-R132C mutant.
The experimental process is as follows:
1) The compound was 3-fold serially diluted with DMSO and added to a cell culture plate, with a total of 10 concentrations, each concentration in duplicate. Negative control wells contained DMSO only, and positive control wells contained BAY1436032 at a final concentration of 5 μM. The final concentration of DMSO in all wells was 0.5%.
2) The IDH1 mutant cell line was seeded into the compound-containing cell culture plate at a density of 40,000 cells/well. Cells were co-incubated with compounds for 3 days in a 37° C., 5% CO2 incubator.
3) After 3 days, 10 μl of cell culture supernatant was taken, diluted 21 times with 200 μl of ddH2O to 210 μl and mixed well. […]

Data set [6] can be described thus: Hygroscopicity study by dynamic vapor sorption (DVS). It counts as physicochemical. Conditions: 25° C. and 80% RH. On the procedure:
Dynamic Vapor Sorption (DVS) Method of the Present Disclosure
Instrument model: SMS DVS intrinsic dynamic moisture adsorption instrument
Test conditions: 10 mg of the sample was weighed out and placed in a DVS sample tray for testing.
The detailed DVS parameters were as follows:
RH (%) test gradient range: 0%-95%-0%
The hygroscopicity evaluation is classified as follows:
SMS DVS intrinsic Dynamic Vapor Sorption Instrument

The nature of data set [7]: Solid stability test (crystalline form by XRPD). It counts as physicochemical. On the procedure:
According to the “Guidelines for Stability Test of Raw Materials and Preparations” (General Principles 9001 of Part Four of Chinese Pharmacopoeia 2015 Edition), crystalline form E of the compound represented by formula (I) was investigated for stability at high temperature (60° C., open), high humidity (room temperature/relative humidity 92.5%, open) and strong light (5000 lx, closed).
About 10 mg of compound represented by formula (I) was accurately weighed out, placed in a dry and clean glass bottle, spread out into a thin layer and covered with aluminum foil with small holes under the influence factor test conditions (60° C., 92.5% RH) and accelerated conditions (40° C./75% RH and 60° C./75% RH). The samples placed under the condition of light (visible light 1200000 Lux, ultraviolet 200 W) were in transparent glass bottles, with one group fully exposed and the other fully packaged with aluminum foil. Samples in duplicate were placed under each condition at each time point, and the samples for XRPD detection were placed separately. Samples placed under different conditions were sampled for XRPD detection at the planned test end point, and the test results were compared with the initial test results at Day 0.

A short description of data set [8]: Solid stability test (crystalline form by XRPD). Conditions: Light (total illuminance = 1.2 × 10^6 Lux, Near UV = 200 w · hr/m^2, open). It counts as physicochemical.

T1 sequence (O75874 whole entry R132H): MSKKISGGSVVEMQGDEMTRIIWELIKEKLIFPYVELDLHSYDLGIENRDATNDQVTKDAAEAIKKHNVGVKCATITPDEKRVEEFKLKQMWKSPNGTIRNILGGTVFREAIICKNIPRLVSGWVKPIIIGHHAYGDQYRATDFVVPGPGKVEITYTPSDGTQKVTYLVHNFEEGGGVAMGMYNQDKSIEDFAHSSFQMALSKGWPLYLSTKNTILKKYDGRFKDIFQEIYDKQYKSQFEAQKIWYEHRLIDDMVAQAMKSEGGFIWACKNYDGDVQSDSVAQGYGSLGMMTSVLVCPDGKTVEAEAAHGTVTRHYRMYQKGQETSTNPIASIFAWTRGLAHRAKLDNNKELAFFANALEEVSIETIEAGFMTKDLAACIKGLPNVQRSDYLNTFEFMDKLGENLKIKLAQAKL
Sequence of IDH1 (R132H) (O75874 whole entry R132H): as above
Sequence of IDH1 wt (wild type) (O75874 whole entry): as the sequence (O75874 whole entry R132H) above, with H132R counted along it
Sequence of IDH1 (R132C) (O75874 whole entry R132C): as the sequence (O75874 whole entry R132H) above, with H132C counted along it

For the compound `O=C(O)CCc1ccc2c(c1)nc(Nc1ccc(OC(F)(F)F)cc1)n2[C@@H]1CCCc2ccccc21` [Compound represented by formula (I)], the “inhibitory effect on mutant IDH1R132C at the enzymatic level” value in data set [1] is reported as “good inhibitory effect”. In data set [2], the “pharmacokinetic properties in mice” value was “good pharmacokinetic properties”. Also, the “inhibitory effect on mutant IDH1R132H at the enzymatic level” value in data set [3] is given as “good inhibitory effect”. The “inhibitory effect on wild-type IDH protein” value in data set [4] was “no inhibitory effect”. Besides, the “2-HG inhibitory effect on U87MG glioma cells with IDH1R132H mutation” value in data set [5] is on record as “good 2-HG inhibitory effect”. In data set [5] (2-HG inhibition, cells co-incubated with compound for 3 days), the IC50 was determined as 38.2 nM.
Regarding `O=C(O)CCc1ccc2c(c1)nc(Nc1ccc(OC(F)(F)F)cc1)n2[C@@H]1CCCc2ccccc21`, the Hygroscopic classification result in data set [6] is “non-hygroscopic”. Also, the “hygroscopic weight gain ΔW” value in data set [6] was found to be 0.09%. In addition, the Crystalline form result in data set [7] (0 days (initial)) was “Crystalline form B”; in data set [7] (25° C./92.5% RH, open, 5 days), “Crystalline form B”; in data set [7] (25° C./92.5% RH, open, 10 days), “Crystalline form B”; in data set [7] (40° C./75% RH, open, 1 month) it was “Crystalline form B”; in data set [7] (40° C./75% RH, open, 2 months), “Crystalline form B”; in data set [7] (40° C./75% RH, open, 3 months) it was “Crystalline form B”. Also, the Crystalline form result in data set [7] (60° C., open, 5 days) was “Crystalline form B”; in data set [7] (60° C., open, 10 days), “Crystalline form B”; in data set [7] (60° C./75% RH, open, 1 month), “Crystalline form B”; in data set [7] (60° C./75% RH, open, 2 months), “Crystalline form B”; in data set [8] (5 days) it was “Crystalline form B”; in data set [8] (10 days) it was “Crystalline form B”.
